Values after ≈ are worked out from the molar mass of the structure shown. Active and inactive are the calls of the source. No cut-off for these calls is given here.
Legend:
MDCK = test: Substrate activity at p-glycoprotein in MDCK cells overexpressing MDR1 assessed as efflux ratio of permeability from basolateral to apical side over apical to basolateral side; format: cell-based; details: Canis lupus familiaris
[1] = Apparent permeability across apical to basolateral side in MDCK cells; format: ADME, cell-based, Canis lupus familiaris; details: dog
[2] = Aqueous solubility of the compound at pH 6.8; format: physicochemical
Kir3.1/Kir3.4 = molecular target: T1, Kir3.1/Kir3.4 (Homo sapiens, UniProt P48544+P48549); test: Inhibition of recombinant human GIRK1/4 channel; format: protein-complex assay
T1 sequence (P48549 whole entry): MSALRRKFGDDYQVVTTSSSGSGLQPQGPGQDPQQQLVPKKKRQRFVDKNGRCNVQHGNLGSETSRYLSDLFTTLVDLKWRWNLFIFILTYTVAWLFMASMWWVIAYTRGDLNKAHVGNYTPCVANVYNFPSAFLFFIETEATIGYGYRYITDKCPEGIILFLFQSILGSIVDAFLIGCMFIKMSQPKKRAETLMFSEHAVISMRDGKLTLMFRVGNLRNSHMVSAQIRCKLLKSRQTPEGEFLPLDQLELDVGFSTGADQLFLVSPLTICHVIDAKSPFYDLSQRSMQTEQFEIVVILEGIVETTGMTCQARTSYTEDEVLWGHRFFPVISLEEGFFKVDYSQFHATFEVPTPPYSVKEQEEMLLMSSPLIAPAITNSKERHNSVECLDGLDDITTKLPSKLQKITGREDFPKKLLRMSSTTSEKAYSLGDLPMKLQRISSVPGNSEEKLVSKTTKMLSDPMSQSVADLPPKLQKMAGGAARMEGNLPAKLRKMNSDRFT
T1 sequence (P48544 whole entry): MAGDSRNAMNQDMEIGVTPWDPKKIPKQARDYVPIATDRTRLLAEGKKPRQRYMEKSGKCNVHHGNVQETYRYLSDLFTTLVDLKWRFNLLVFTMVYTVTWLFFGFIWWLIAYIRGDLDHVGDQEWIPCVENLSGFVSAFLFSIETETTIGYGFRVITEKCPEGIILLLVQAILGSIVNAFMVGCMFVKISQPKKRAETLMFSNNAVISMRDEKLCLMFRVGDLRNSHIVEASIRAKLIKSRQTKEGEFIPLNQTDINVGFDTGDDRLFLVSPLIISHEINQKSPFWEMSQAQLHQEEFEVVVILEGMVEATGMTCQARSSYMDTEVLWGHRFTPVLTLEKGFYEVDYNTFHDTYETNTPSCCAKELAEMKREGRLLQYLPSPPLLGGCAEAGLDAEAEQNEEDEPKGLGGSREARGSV

[3] = molecular target: T2, Potassium voltage-gated channel subfamily KQT member 1 (Homo sapiens, UniProt P51787); test: Inhibition of recombinant human KCNQ1; format: toxicity
T2 sequence (P51787 whole entry): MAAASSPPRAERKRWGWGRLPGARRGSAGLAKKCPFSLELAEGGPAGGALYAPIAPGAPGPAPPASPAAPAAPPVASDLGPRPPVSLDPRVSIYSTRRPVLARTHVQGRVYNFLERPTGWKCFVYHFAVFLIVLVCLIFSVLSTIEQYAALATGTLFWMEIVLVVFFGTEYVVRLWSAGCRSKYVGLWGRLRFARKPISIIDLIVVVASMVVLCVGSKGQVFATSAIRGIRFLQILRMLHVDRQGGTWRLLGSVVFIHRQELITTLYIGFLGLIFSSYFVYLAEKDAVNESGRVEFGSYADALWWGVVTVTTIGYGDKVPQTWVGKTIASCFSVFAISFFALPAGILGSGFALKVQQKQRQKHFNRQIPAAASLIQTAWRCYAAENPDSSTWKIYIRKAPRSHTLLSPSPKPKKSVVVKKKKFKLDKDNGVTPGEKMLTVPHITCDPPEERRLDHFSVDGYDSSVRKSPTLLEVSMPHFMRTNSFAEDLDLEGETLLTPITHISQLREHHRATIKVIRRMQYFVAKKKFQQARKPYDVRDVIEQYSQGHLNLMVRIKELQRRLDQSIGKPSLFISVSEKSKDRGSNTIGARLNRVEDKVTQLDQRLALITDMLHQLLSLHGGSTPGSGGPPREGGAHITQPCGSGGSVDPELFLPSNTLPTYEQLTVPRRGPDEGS

[4] = molecular target: Voltage-dependent L-type calcium channel subunit alpha-1C (Homo sapiens, UniProt Q13936); test: Inhibition of recombinant human Cav1.2; format: toxicity
[5] = molecular target: Voltage-gated inwardly rectifying potassium channel KCNH2 (Homo sapiens, UniProt Q12809); test: Inhibition of recombinant hERG in the presence of dofetilide by competitive binding assay; format: toxicity
Chain of Voltage-gated inwardly rectifying potassium channel KCNH2 (Q12809 whole entry): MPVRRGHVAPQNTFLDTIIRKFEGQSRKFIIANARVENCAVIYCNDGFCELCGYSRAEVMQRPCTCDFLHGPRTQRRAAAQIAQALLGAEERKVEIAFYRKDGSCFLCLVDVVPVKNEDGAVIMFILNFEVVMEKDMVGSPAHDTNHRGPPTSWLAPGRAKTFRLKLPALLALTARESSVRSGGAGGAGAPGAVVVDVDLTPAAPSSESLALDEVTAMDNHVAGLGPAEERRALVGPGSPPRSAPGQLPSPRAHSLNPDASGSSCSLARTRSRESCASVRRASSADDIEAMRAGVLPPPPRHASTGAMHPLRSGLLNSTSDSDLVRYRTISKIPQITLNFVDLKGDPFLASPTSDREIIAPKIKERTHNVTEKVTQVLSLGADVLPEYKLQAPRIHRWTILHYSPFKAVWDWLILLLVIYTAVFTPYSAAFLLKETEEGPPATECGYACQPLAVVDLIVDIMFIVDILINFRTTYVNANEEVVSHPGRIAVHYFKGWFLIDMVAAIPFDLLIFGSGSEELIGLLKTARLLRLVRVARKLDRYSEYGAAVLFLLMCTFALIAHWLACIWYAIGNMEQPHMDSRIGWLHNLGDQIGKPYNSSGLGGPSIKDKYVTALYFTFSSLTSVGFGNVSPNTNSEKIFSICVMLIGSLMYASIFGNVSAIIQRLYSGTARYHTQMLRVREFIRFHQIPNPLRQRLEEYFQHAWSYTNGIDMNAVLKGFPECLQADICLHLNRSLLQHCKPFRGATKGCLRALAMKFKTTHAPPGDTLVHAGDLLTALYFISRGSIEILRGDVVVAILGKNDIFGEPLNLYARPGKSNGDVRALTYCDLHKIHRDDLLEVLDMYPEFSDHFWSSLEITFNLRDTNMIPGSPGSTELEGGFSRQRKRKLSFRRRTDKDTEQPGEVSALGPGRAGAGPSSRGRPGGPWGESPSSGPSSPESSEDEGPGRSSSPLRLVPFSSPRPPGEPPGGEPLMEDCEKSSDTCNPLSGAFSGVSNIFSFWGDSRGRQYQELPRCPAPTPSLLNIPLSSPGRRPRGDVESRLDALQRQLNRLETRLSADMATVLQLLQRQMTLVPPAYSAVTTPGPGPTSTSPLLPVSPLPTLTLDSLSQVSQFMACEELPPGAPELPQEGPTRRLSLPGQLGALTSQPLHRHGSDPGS

[6] = molecular target: Sodium channel protein type 5 subunit alpha (Homo sapiens, UniProt Q14524); test: Inhibition of recombinant human Nav1.5; format: toxicity
Chain of Sodium channel protein type 5 subunit alpha (Q14524 whole entry): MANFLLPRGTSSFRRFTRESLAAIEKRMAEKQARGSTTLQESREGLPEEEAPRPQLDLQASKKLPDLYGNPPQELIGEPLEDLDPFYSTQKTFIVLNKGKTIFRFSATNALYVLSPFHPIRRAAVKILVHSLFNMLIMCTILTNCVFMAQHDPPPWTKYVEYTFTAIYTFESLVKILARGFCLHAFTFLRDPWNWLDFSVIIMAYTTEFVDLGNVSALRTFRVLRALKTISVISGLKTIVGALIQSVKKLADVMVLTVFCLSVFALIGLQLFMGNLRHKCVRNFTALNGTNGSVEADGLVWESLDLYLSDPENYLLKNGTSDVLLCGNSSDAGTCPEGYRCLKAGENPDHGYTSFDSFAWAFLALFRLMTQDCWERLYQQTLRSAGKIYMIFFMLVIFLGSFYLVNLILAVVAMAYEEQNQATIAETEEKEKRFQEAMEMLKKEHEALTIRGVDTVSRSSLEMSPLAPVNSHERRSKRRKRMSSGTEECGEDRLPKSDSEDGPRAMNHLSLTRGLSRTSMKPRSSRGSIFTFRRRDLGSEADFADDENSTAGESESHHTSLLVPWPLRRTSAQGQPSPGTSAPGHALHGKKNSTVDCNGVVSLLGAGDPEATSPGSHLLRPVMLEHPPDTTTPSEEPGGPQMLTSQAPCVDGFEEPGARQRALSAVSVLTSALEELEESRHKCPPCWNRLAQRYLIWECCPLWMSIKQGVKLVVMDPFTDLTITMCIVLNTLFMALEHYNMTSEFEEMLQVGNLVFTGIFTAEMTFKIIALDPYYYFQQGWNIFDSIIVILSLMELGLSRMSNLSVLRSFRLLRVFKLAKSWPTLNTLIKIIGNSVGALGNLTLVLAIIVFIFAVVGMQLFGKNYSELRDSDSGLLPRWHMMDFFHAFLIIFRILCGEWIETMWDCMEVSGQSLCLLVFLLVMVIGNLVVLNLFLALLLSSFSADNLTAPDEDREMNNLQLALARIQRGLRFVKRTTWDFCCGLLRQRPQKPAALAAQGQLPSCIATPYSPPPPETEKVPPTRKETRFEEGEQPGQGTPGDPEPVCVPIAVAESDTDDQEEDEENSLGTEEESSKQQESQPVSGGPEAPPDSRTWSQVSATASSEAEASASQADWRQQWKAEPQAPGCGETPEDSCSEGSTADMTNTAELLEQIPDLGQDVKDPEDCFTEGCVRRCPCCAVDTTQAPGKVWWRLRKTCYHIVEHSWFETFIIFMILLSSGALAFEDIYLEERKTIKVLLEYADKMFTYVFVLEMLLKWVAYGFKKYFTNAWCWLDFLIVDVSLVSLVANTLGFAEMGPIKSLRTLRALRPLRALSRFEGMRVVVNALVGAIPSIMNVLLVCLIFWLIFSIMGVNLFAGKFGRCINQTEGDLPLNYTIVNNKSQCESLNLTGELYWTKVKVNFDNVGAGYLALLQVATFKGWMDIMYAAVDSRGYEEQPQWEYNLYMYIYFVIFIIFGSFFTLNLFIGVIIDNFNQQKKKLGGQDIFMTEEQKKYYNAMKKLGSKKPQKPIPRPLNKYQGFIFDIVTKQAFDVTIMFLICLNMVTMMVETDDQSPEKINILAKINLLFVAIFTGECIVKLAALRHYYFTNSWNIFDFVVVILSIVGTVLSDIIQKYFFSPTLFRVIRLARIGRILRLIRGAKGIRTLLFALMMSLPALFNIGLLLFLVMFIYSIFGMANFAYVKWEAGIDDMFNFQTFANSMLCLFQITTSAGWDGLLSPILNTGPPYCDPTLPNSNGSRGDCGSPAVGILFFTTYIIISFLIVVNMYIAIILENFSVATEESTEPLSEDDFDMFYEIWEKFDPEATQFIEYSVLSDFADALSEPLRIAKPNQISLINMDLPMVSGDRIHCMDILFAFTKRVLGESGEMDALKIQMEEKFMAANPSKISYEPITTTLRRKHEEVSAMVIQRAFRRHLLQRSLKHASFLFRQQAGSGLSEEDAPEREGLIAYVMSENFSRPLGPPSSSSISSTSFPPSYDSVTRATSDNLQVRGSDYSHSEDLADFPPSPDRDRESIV

[7] = Brain to plasma ratio in rat; format: ADME; details: read-out: BPR
[8] = Toxicity in iv dosed rat assessed as neurobehavioral disturbances by measuring convulsions; format: organism-based; details: in vivo
[9] = Toxicity in iv dosed rat assessed as neurobehavioral disturbances by measuring increase in motor activity; format: organism-based; details: in vivo
[10] = Intrinsic clearance in rat liver microsomes; format: ADME, Microsome; details: read-out: CLH
[11] = Intrinsic clearance in human liver microsomes; format: ADME, Microsome; details: read-out: CLH
Kir3.1/Kir3.2 [12] = molecular target: T3, Kir3.1/Kir3.2 (Homo sapiens, UniProt P48051+P48549); test: Inhibition of recombinant human GIRK1/2 channel; format: protein-complex assay
T3 sequence (P48549 whole entry): T1 sequence (P48549 whole entry)
T3 sequence (P48051 whole entry): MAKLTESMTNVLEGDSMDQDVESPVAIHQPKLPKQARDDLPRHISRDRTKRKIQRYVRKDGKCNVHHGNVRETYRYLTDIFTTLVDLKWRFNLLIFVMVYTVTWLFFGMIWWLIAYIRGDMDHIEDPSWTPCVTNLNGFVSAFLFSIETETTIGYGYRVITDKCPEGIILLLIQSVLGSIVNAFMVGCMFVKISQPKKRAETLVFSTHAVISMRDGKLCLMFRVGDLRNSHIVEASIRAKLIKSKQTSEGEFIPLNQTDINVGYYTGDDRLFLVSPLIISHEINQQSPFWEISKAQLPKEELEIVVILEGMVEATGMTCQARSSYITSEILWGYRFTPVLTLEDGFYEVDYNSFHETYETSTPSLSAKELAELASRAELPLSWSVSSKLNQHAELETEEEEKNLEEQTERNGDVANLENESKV

[13] = Toxicity in langendorff-perfused guinea pig heart assessed as effect on left atrial action potential duration at 10 uM; format: tissue-based, Cavia porcellus
[14] = Brain to plasma ratio in iv dosed rat measured after 30 mins; format: ADME, organism-based; details: read-out: BPR
[15] = Terminal half-life in iv dosed rat; format: ADME, organism-based; details: in vivo, read-out: beta t1/2 (converted)
Cavia porcellus [16] = test: Effect on fingolimod-induced shortening of AERP in guinea pig model assessed as prolongation of shortened AERP at 3 mg/kg, iv measured at 20 to 30 mins; format: functional, organism-based; details: time 20-30 min
Cavia porcellus [17] = test: Effect on AERP in guinea pig assessed as increase in AERP interval at 3 mg/kg, iv measured for 60 mins; format: functional, organism-based
[18] = Toxicity in rat assessed as NOAEL administered as repeated dose for 6 days; details: in vivo, time 6 day
[19] = Toxicity in langendorff-perfused guinea pig heart assessed as effect on QT interval at 10 uM; format: tissue-based, Cavia porcellus
[20] = Clearance in iv dosed rat; format: ADME, organism-based; details: in vivo
Cavia porcellus [21] = species: Cavia porcellus; test: Effect on fingolimod-induced shortening of AERP in guinea pig model assessed as restoration of shortened AERP measured at 30 to 60 mins; format: functional; details: time 30-60 min
[22] = Toxicity in langendorff-perfused guinea pig heart assessed as effect on PR interval at 10 uM; format: tissue-based, Cavia porcellus
[23] = Toxicity in langendorff-perfused guinea pig heart assessed as effect on coronary artery perfusion pressure at 10 uM; format: tissue-based, Cavia porcellus
[24] = Cmax in rat administered as repeated dose for 6 days; format: ADME; set-up: time 6 day; details: in vivo
[25] = Equilibrium solubility of the compound at pH 7.4; format: physicochemical; details: buffer
[26] = Toxicity in rat assessed as NOAEL administered as single dose; details: in vivo
[27] = Toxicity in langendorff-perfused guinea pig heart assessed as effect on left ventricular action potential duration at 10 uM; format: tissue-based, Cavia porcellus
Kir3.1/Kir3.2 [28] = molecular target: T3, Kir3.1/Kir3.2; test: Inhibition of GIRK1/2 (unknown origin) channel; format: protein-complex assay
[29] = Cmax in rat administered as single dose; format: ADME; details: in vivo

Papp A→B [1] [×10⁻⁶ cm/s]	solubility [2] [µM]	IC50 (Kir3.1/Kir3.4) [nM]	Structure (SMILES)	Ratio (MDCK)	IC50 [3] [nM]	IC50 [4] [nM]	IC50 [5] [nM]	IC50 [6] [nM]	also measured
22.6	89 (≈ 34.3 µg/mL)	27	COc1ncc(Cl)c2c1c(=O)cc(CO)n2-c1c(Cl)cccc1Cl	2.7	–	–	–	–	–
5	–	150	O=c1cc(CO)n(-c2c(Cl)cccc2Cl)c2c(Cl)cnc(OC[C@@H](O)CO)c12	10.6	> 50000	> 50000	> 50000	> 50000	–
7	700 (≈ 312 µg/mL)	80	O=c1cc(CO)n(-c2c(Cl)cccc2Cl)c2c(Cl)cnc(OCC(O)CO)c12 (stereo unspecified)	12.1	–	–	–	–	–
13.1	680 (≈ 327 µg/mL)	> 5000	Cc1cc(=O)c2c(OCC(O)CO)nc(N3CCOCC3)cc2n1-c1c(Cl)cccc1Cl (stereo unspecified)	–	–	–	–	–	–
31	660 (≈ 273 µg/mL)	11	Cc1cc(=O)c2c(F)cncc2n1-c1c(Cl)cc(OCC(O)CO)cc1Cl (stereo unspecified)	0.9	–	–	–	–	Kp [7]: 1
13.9	52 (≈ 18.1 µg/mL)	190	Cc1cc(=O)c2c(F)cncc2n1-c1c(Cl)cc(C#N)cc1Cl	1.8	> 50000	> 50000	> 30000	> 50000	Activity [8]: Toxic; Activity [9]: Toxic; microsomal CLint [10]: 18 µL/min/mg; microsomal CLint [11]: 12 µL/min/mg; IC50 (Kir3.1/Kir3.2 [12]): 200 nM
8.7	–	100	O=c1cc(CO)n(-c2c(Cl)cccc2Cl)c2c(Cl)cnc(OC[C@H](O)CO)c12	13.5	> 50000	> 50000	> 50000	> 50000	Activity [13]: Non-Toxic; Kp at 0.5 h [14]: 0.02; half-life [15]: 1.3 h; Activity (Cavia porcellus [16]): Active; Activity (Cavia porcellus [17]): Active; NOAEL at 144 h [18]: 75 mg/kg; Activity [19]: Non-Toxic; clearance [20]: 35 mL/min/kg; EC90 (Cavia porcellus [21]): 1200 nM; Activity [22]: Non-Toxic; Activity [23]: Non-Toxic; Cmax [24]: 193 µM; solubility thermodynamic [25]: 1000 µM (≈ 446 µg/mL); NOAEL [26]: 75 mg/kg; Activity [27]: Non-Toxic; IC50 (Kir3.1/Kir3.2 [28]): 100 nM; Cmax [29]: 193 µM
7.5	720 (≈ 363 µg/mL)	–	Cc1cc(=O)c2c(OCC(O)COCC(O)CO)ncc(Cl)c2n1-c1c(Cl)cccc1Cl (stereo unspecified)	15	–	–	–	–	–
8.5	280 (≈ 102 µg/mL)	290	COc1ncc(C)c2c1c(=O)cc(CO)n2-c1c(Cl)cccc1Cl	–	–	–	–	–	–
